The IC50 is the concentration at which inhibition is half-maximal.

The values below come from US10961238B2, “Modulators of hedgehog (Hh) signaling pathway” (E-THERAPEUTICS PLC, priority 2016, dated 2021).

The structures appear in SMILES notation.

For this assay, the system named is C3H10T1/2 cells. In words: C3H assay: differentiation of C3H10T1/2 cells by mSHH, measurement of alkaline phosphatase. The class given is cell-based, mouse. The settings on record: Mus musculus, C3H 10T1/2; C3H10T1/2 cells stimulated with mSHH for 72 hours; alkaline phosphatase activity; read-out: IC50 Ranges.
Regarding `Cc1cnc2[nH]cc(C3CCN(S(=O)(=O)C4CN(C(=O)OC(C)(C)C)C4)CC3)c2c1` [Compound 2, tert-butyl 3-[4-(5-methyl-1H-pyrrolo[2,3-b]pyridin-3-yl)piperidin-1-yl] sulfonylaze-tidine-1-carboxylate], the IC50 was in the range of 1000 to 10000 nM.

For `CN(C)CC(=O)N1CC(S(=O)(=O)N2CCC(c3coc4cccnc34)CC2)C1` [Compound 329, 2-(dimethylamino)-1-[3-(4-furo[3,2-b]pyridin-3-ylpiperidin-1-yl)sulfonylaze-tidin-1-yl]ethanone], the IC50 was in the range of 1000 to 10000 nM.

With `Cc1ccc2c(C3CCN(S(=O)(=O)C4CN(C(=O)OC5CCOCC5)C4)CC3)c[nH]c2n1` [Compound 380, oxan-4-yl 3-[4-(6-methyl-1H-pyrrolo[2,3-b]pyridin-3-yl)piperidin-1-yl]sulfonylaze-tidine-1-carboxylate], the IC50 is < 10 nM.

With `O=C(OC1CCCCC1)N1CC(S(=O)(=O)N2CCC(c3ccncc3)CC2)C1` [Compound 264, cyclohexyl 3-(4-pyridin-4-ylpiperidin-1-yl)sulfonylaze-tidine-1-carboxylate], the IC50 was in the range of 100 to 1000 nM.

As to `Cn1cncc1C1CCN(S(=O)(=O)C2CN(C(=O)OC(C)(C)C)C2)CC1` [Compound 102, tert-butyl 3-[4-(3-methylimidazol-4-yl)piperidin-1-yl]sulfonylaze-tidine-1-carboxylate], the IC50 lay within 1000 to 10000 nM.

As for `CC(C)N1CC(S(=O)(=O)N2CCC(c3c[nH]c4ncccc34)CC2)C1` [Compound 89, 3-[1-(1-propan-2-ylazetidin-3-yl)sulfonylpiper-idin-4-yl]-1H-pyrrolo[2,3-b]pyridine], the IC50 was 1000 to 10000 nM.

With `O=C(Nc1cccc(F)c1)N1CC(S(=O)(=O)N2CCC(c3coc4cccnc34)CC2)C1` [Compound 383, N-(3-fluorophenyl)-3-(4-furo[3,2-b]pyridin-3-ylpiperidin-1-yl)sulfonylaze-tidine-1-carboxamide], the half-maximal inhibitory concentration (IC50) fell in the range of 10 to 100 nM.

As to `O=C(Nc1ccccc1)N1CCC(S(=O)(=O)N2CCC(c3ccncc3)CC2)CC1` [Compound 21, N-phenyl-4-(4-pyridin-4-ylpiperidin-1-yl)sulfonylpiper-idine-1-carboxamide], the IC50 fell in the range of 1000 to 10000 nM.

Consider `CC(C)(C)OC(=O)N1CCC(S(=O)(=O)N2CC=C(c3c[nH]c4ncncc34)CC2)CC1` [Compound 233, tert-butyl 4-[[4-(7H-pyrrolo[2,3-d]pyrimidin-5-yl)-3,6-dihydro-2H-pyridin-1-yl]sulfonyl] piperidine-1-carboxylate], for which the IC50 was in the range of 1000 to 10000 nM.

Turning to `COCC(C)(C)OC(=O)N1CC(S(=O)(=O)N2CCC(c3c[nH]c4ncccc34)CC2)C1` [Compound 152, (1-methoxy-2-methylpropan-2-yl) 3-[4-(1H-pyrrolo[2,3-b]pyridin-3-yl)piperidin-1-yl]sulfonylaze-tidine-1-carboxylate], the IC50 is < 10 nM.

Take `O=C(N1CCOCC1)N1CC(S(=O)(=O)N2CCC(c3ccc(Cl)cc3)CC2)C1` [Compound 402, [3-[4-(4-chlorophenyl)piperidin-1-yl]sulfonylaze-tidin-1-yl]-morpholin-4-ylmethanone]: the IC50 was 100 to 1000 nM.

`O=C(O[C@@H]1CCOC1)N1CC(S(=O)(=O)N2CCC(c3c[nH]c4ncccc34)CC2)C1` [Compound 196, [(3R)-oxolan-3-yl]3-[4-(1H-pyrrolo[2,3-b]pyridin-3-yl)piperidin-1-yl]sulfonylaze-tidine-1-carboxylate]: the IC50 lay within 100 to 1000 nM.

Turning to `O=C(C1CCCC1)N1CC(S(=O)(=O)N2CCC(c3c[nH]c4ncccc34)CC2)C1` [Compound 190, cyclopentyl-[3-[4-(1H-pyrrolo[2,3-b]pyridin-3-yl)piperidin-1-yl]sulfonylaze-tidin-1-yl]methanone], the IC50 fell in the range of 10 to 100 nM.

Regarding `O=C(Nc1cccnc1)N1CC(S(=O)(=O)N2CCC(c3c[nH]c4ncccc34)CC2)C1` [Compound 96, N-pyridin-3-yl-3-[4-(1H-pyrrolo[2,3-b]pyridin-3-yl)piperidin-1-yl]sulfonylaze-tidine-1-carboxamide], the IC50 was in the range of 10 to 100 nM.

Regarding `CN(C)CC(C)(C)OC(=O)N1CC(S(=O)(=O)N2CCC(c3ccncc3)CC2)C1` [Compound 144, [1-(dimethylamino)-2-methylpropan-2-yl]3-(4-pyridin-4-ylpiperidin-1-yl)sulfonylaze-tidine-1-carboxylate], the IC50 lay in the range of 100 to 1000 nM.

With `CC(C)NC(=S)N1CC(S(=O)(=O)N2CCC(c3c[nH]c4ncccc34)CC2)C1` [Compound 179, N-propan-2-yl-3-[4-(1H-pyrrolo[2,3-b]pyridin-3-yl)piperidin-1-yl]sulfonylaze-tidine-1-carbo-thioamide], the IC50 lay within 10 to 100 nM.

For `CC(C)(C)OC(=O)N1CCC(S(=O)(=O)N2CCC(c3c[nH]c4ncc(C(F)(F)F)cc34)CC2)CC1` [Compound 116], the IC50 was in the range of 100 to 1000 nM.

As to `CC(C)(C)COC(=O)N1CC(S(=O)(=O)N2CCC(c3coc4cccnc34)CC2)C1` [Compound 140, 2,2-dimethylpropyl 3-(4-furo[3,2-b]pyridin-3-ylpiperidin-1-yl)sulfonylaze-tidine-1-carboxylate], the IC50 lay within 10 to 100 nM.

Take `Cn1cc(-c2cnc3[nH]cc(C4CCN(S(=O)(=O)C5CCN(C(=O)OC(C)(C)C)CC5)CC4)c3c2)cn1` [Compound 117, tert-butyl 4-[4-[5-(1-methylpyrazol-4-yl)-1H-pyrrolo [2,3-b]pyridin-3-yl]piperidin-1-yl]sulfonylpiper-idine-1-carboxylate]: the IC50 was 1000 to 10000 nM.

Consider `CN(C)CC(=O)N1CC(S(=O)(=O)N2CCC(c3c[nH]c4ncccc34)CC2)C1` [Compound 325, 2-(dimethylamino)-1-[3-[4-(1H-pyrrolo[2,3-b]pyridin-3-yl)piperidin-1-yl]sulfonylaze-tidin-1-yl]ethanone], for which the IC50 was 1000 to 10000 nM.

`CC(C)(C)OC(=O)N1CC(S(=O)(=O)N2CCC(c3csc4cccnc34)CC2)C1` [Compound 17, tert-butyl 3-(4-thieno[3,2-b]pyridin-3-ylpiperidin-1-yl)sulfonylaze-tidine-1-carboxylate]: the IC50 is 10 to 100 nM.

`Cc1cc(C#N)ccc1N1CCN(S(=O)(=O)C2CN(C(=O)OC(C)(C)C)C2)CC1` [Compound 240, tert-butyl 3-[4-(4-cyano-2-methylphenyl)piperazin-1-yl]sulfonylaze-tidine-1-carboxylate]: the IC50 is 1000 to 10000 nM.

`CC(C)(C)OC(=O)N1CCn2c(C3CCN(S(=O)(=O)C4CN(C(=O)OC(C)(C)C)C4)CC3)cnc2C1` [Compound 4, tert-butyl 3-[1-[1-[(2-methylpropan-2-yl)oxycarbonyl]azetidin-3-yl]sulfonylpiper-idin-4-yl]-6,8-dihydro-5H-imidazo[1,2-a]pyrazine-7-carboxylate]: the IC50 was 1000 to 10000 nM.

`Cc1noc(C)c1COC(=O)N1CC(S(=O)(=O)N2CCC(c3ccncc3)CC2)C1` [Compound 202, (3,5-dimethyl-1,2-oxazol-4-yl)methyl 3-(4-pyridin-4-ylpiperidin-1-yl)sulfonylaze-tidine-1-carboxylate]: the IC50 fell in the range of 100 to 1000 nM.

Consider `O=C(Nc1ccc(Cl)cc1Cl)N1CC(S(=O)(=O)N2CCC(c3coc4cccnc34)CC2)C1` [Compound 359, N-(2,4-dichlorophenyl)-3-(4-furo[3,2-b]pyridin-3-ylpiperidin-1-yl)sulfonylaze-tidine-1-carboxamide], for which the IC50 was 10 to 100 nM.
